Test results: paper PMC4441825 (Chemical research in toxicology, 2013)

Target: regulator of G-protein signaling 4 (RGS4) (Rattus norvegicus, UniProt P49799)
Experiment: LC-ESI-MS of intact protein
Assay type: biochemical

regulator of G-protein signaling 4 (RGS4), sequence (P49799 52-205): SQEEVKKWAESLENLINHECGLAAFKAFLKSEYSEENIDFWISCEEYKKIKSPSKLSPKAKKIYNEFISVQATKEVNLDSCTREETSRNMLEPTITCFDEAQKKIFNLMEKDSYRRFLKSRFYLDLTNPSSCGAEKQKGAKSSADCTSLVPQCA
regulator of G-protein signaling 4 (RGS4), sequence (P63096 2-354 R178M/A326S partner): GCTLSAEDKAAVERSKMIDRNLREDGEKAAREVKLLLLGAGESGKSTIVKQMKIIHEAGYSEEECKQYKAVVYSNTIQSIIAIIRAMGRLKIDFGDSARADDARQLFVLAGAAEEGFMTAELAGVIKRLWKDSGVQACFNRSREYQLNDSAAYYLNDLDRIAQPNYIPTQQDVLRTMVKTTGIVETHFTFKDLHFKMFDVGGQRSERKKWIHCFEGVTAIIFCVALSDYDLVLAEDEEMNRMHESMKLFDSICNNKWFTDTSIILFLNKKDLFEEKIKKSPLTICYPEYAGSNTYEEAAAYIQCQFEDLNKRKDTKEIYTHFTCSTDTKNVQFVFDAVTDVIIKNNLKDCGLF

IC50: ~7.5 mM
Structure (SMILES): CCCCCC(O)C=CC=O (stereo not shown) [4HNE, 4-hydroxy-2-nonenal]
